In patent US11773078B2, “Furin inhibitors” (Glaxosmithkline Intellectual Property Development Limited, priority 2018, dated 2023):

How the values were obtained:
[1] = target: T1, Furin (108-574-Tev-Flag-His) enzyme (Homo sapiens, UniProt P09958); assay: Furin enzyme assay; type: biochemical; settings: for IC50: read-out: furin enzyme pIC50 (converted)
T1 construct: Furin (108-574-Tev-Flag-His) enzyme was expressed and purified from CHO cells; TEV cleavage site (C); FLAG (C); His (C); made in house; host or cells: CHO cells
In short: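 CHO-expressed, purified furin construct at 40 pM in 100 mM HEPES pH7.5, 1 mM CaCl2, 0.005% Triton X-100. Eleven-point 1:3 series, 0.00017–10 μM final, incubated 2 h at room temperature and read on Envision. pXC50 from four-parameter fit.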

[2] = target: T2, furin (endogenous protease) in U20S cells (Homo sapiens, UniProt P09958); assay: Furin cell-based assay (image-based, Golgi-targeted GFP with BMP10 furin/PCSK cleavage site); settings: 24-hour incubation, read-out: furin golgi cell pXC50 (converted);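 note: Read-out is mean GFP fluorescence of Golgi puncta per cell by high-content imaging, retained when furin inhibited, over an eleven-point 0.00017–10 µM series, four-parameter fit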
T2 construct: the endogenous protease cleaves GFP; endogenous in cells; host or cells: U2OS cells transduced with a BacMam reporter
T2 sequence (P09958 108-794): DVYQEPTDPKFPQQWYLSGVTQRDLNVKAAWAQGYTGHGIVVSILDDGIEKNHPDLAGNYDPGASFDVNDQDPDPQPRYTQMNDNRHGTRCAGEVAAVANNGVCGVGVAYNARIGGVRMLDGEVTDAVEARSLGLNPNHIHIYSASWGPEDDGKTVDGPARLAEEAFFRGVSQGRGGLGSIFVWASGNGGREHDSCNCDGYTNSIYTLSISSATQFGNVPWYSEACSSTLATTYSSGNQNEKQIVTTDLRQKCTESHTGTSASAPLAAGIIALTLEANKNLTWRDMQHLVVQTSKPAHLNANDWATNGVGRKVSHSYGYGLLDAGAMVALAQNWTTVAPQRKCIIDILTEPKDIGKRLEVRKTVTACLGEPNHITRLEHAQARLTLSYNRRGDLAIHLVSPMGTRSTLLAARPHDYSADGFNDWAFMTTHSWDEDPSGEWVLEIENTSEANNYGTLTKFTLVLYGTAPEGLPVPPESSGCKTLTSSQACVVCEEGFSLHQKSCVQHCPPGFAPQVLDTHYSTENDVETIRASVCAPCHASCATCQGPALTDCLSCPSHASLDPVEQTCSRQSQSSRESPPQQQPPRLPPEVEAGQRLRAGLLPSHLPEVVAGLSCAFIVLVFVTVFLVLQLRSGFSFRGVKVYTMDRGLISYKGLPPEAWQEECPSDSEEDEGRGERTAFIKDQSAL

T1 sequence (P09958 108-574): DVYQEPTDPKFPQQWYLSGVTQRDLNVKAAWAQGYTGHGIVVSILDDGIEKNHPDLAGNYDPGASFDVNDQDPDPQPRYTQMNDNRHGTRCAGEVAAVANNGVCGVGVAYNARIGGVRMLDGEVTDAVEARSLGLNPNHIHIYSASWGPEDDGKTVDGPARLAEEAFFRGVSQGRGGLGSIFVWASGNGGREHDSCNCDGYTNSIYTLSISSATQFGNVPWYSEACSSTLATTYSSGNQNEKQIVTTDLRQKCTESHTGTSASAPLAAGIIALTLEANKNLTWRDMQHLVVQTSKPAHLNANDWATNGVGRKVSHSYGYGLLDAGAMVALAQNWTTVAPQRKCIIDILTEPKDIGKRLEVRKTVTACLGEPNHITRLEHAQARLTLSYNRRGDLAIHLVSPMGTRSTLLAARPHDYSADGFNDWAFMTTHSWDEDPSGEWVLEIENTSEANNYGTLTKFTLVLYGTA

furin enzyme pIC50 [1]	EC50 [2] [nM]	IC50 [1] [nM]	SMILES
8.8	12.6	–	CC(=O)NCC1CCN(Cc2cc(Oc3ccc(N4CC[N+](CCO)(CCO)CC4)nc3)nc(-c3cc(Cl)cc(Cl)c3)c2)CC1 [Example 179, 1-(4-(5-((4-((4-(Acetamidomethyl)piperidin-1-yl)methyl)-6-(3,5-dichlorophenyl)pyridin-2-yl)oxy)pyridin-2-yl)-1-(2-hydroxyethyl)piperazin-1-ium-1-yl)-2-hydroxyethan-1-ide]
9	79.4	–	CC(=O)NCC1CCN(Cc2cc(Oc3ccc(N4CC[N+](C)(C)CC4)nc3)nc(-c3cc(Cl)cc(Cl)c3)c2)CC1.[Cl-] [Example 181, 4-(5-((4-((4-(Acetamidomethyl)piperidin-1-yl)methyl)-6-(3,5-dichlorophenyl)pyridin-2-yl)oxy)pyridin-2-yl)-1,1-dimethylpiperazin-1-ium chloride]
9.1	39.8	–	CC(=O)NCC1CCN(Cc2cc(Oc3ccc(N4CCN(CCC(=O)O)[C@@H](C)C4)nc3)nc(-c3cc(Cl)cc(Cl)c3)c2)CC1 [Example 186, (S)-3-(4-(5-((4-((4-(acetamidomethyl)piperidin-1-yl)methyl)-6-(3,5-dichlorophenyl)pyridin-2-yl)oxy)pyridin-2-yl)-2-methylpiperazin-1-yl)propanoic acid]
8.8	12.6	–	CCC(CCN1CCN(c2ccc(Oc3cc(CN4CCC(CNC(C)=O)CC4)cc(-c4cc(Cl)cc(Cl)c4)n3)cn2)CC1)C(=O)O (stereo not shown) [Example 188, 4-(4-(5-((4-((4-(acetamidomethyl)piperidin-1-yl)methyl)-6-(3,5-dichlorophenyl)pyridin-2-yl)oxy)pyridin-2-yl)piperazin-1-yl)-2-ethylbutanoic acid]
8.7	31.6	–	CC(=O)NCC1CCN(Cc2cc(Oc3ccc(N4CCN(CC(C)(C)C(=O)O)CC4)nc3)nc(-c3cc(Cl)cc(Cl)c3)c2)CC1 [Example 189, 3-(4-(5-((4-((4-(acetamidomethyl)piperidin-1-yl)methyl)-6-(3,5-dichlorophenyl)pyridin-2-yl)oxy)pyridin-2-yl)piperazin-1-yl)-2,2-dimethylpropanoic acid]
10.7	158	–	CC(=O)NCC1CCN(Cc2cc(Oc3ccc(N4CCCN(CCC(=O)O)CC4)nc3)nc(-c3cc(Cl)cc(Cl)c3)c2)CC1 [Example 190, 3-(4-(5-((4-((4-(Acetamidomethyl)piperidin-1-yl)methyl)-6-(3,5-dichlorophenyl)pyridin-2-yl)oxy)pyridin-2-yl)-1,4-diazepan-1-yl)propanoic acid]
9.8	39.8	–	CC(=O)NCC1CCN(Cc2cc(Oc3ccc(N4CCN(CCC(=O)O)C(C)(C)C4)nc3)nc(-c3cc(Cl)cc(Cl)c3)c2)CC1 [Example 191, 3-(4-(5-((4-((4-(acetamidomethyl)piperidin-1-yl)methyl)-6-(3,5-dichlorophenyl)pyridin-2-yl)oxy)pyridin-2-yl)-2,2-dimethylpiperazin-1-yl)propanoic acid]
10.4	15.8	–	CC(=O)NCC1CCN(Cc2cc(Oc3ccc(N4CCCNCC4)nc3)nc(-c3cc(Cl)cc(Cl)c3)c2)CC1 [Example 192, N-((1-((2-((6-(1,4-diazepan-1-yl)pyridin-3-yl)oxy)-6-(3,5-dichlorophenyl)pyridin-4-yl)methyl)piperidin-4-yl)methyl)acetamide]
9	3.16	–	CNC1CCN(c2ccc(Oc3cc(CN4CCC(CNC(C)=O)CC4)cc(-c4cc(Cl)cc(Cl)c4)n3)cn2)CC1 [Example 193, N-((1-((2-(3,5-dichlorophenyl)-6-((6-(4-(methylamino)piperidin-1-yl)pyridin-3-yl)oxy)pyridin-4-yl)methyl)piperidin-4-yl)methyl)acetamide]
9.2	1	–	CC(=O)NCC1CCN(Cc2cc(Oc3ccc(N4CCNC(CO)C4)nc3)nc(-c3cc(Cl)cc(Cl)c3)c2)CC1 (stereo not shown) [Example 195, N-((1-((2-(3,5-dichlorophenyl)-6-((6-(3-(hydroxymethyl)piperazin-1-yl)pyridin-3-yl)oxy)pyridin-4-yl)methyl)piperidin-4-yl)methyl)acetamide]
9.2	2	–	CC(=O)NCC1CCN(Cc2cc(Oc3ccc(N4CCNC(C)(C)C4)nc3)nc(-c3cc(Cl)cc(Cl)c3)c2)CC1 [Example 197, N-((1-((2-(3,5-dichlorophenyl)-6-((6-(3,3-dimethylpiperazin-1-yl)pyridin-3-yl)oxy)pyridin-4-yl)methyl)piperidin-4-yl)methyl)acetamide]
9.3	2	–	CC(=O)NCC1CCN(Cc2cc(Oc3ccc(N4CCC(N)C(C)(C)C4)nc3)nc(-c3cc(Cl)cc(Cl)c3)c2)CC1 (stereo not shown) [Example 198, N-((1-((2-((6-(4-amino-3,3-dimethylpiperidin-1-yl)pyridin-3-yl)oxy)-6-(3,5-dichlorophenyl)pyridin-4-yl)methyl)piperidin-4-yl)methyl)acetamide]
9.1	0.501	–	CC(=O)NCC1CCN(Cc2cc(Oc3ccc(N4CCN(C)CC4)nc3)nc(-c3cc(Cl)cc(Cl)c3)c2)CC1 [Example 200, N-((1-((2-(3,5-dichlorophenyl)-6-((6-(4-methylpiperazin-1-yl)pyridin-3-yl)oxy)pyridin-4-yl)methyl)piperidin-4-yl)methyl)acetamide]

Continued, compound first:

SMILES	furin enzyme pIC50 [1]	EC50 [2] [nM]	IC50 [1] [nM]
CC(=O)NCC1CCN(Cc2cc(Oc3ccc(N4CC[N+](C)(O)CC4)nc3)nc(-c3cc(Cl)cc(Cl)c3)c2)CC1 [Example 178, 4-(5-((4-((4-(Acetamidomethyl)piperidin-1-yl)methyl)-6-(3,5-dichlorophenyl)pyridin-2-yl)oxy)pyridin-2-yl)-1-methylpiperazine1-oxide]	8.9	< 2.51	–
CC(=O)NCC1CCN(Cc2cc(Oc3ccc(N4C[C@@H]5C[C@H]4CN5CCS(C)(=O)=O)nc3)nc(-c3cc(Cl)cc(Cl)c3)c2)CC1 [Example 183, N-((1-((2-(3,5-Dichlorophenyl)-6-((6-((1S,4S)-5-(2-(methylsulfonyl)ethyl)-2,5-diazabicyclo[2.2.1]heptan-2-yl)pyridin-3-yl)oxy)pyridin-4-yl)methyl)piperidin-4-yl)methyl)acetamide]	–	12.6	0.0251
CC(=O)NCC1CCN(Cc2cc(Oc3ccc(N4CC5CCC(C4)N5CCC(=O)O)nc3)nc(-c3cc(Cl)cc(Cl)c3)c2)CC1 [Example 185, 3-(3-(5-((4-((4-(Acetamidomethyl)piperidin-1-yl)methyl)-6-(3,5-dichlorophenyl)pyridin-2-yl)oxy)pyridin-2-yl)-3,8-diazabicyclo[3.2.1]octan-8-yl)propanoic acid]	9.5	31.6	–
O=C(O)CC1CCN(Cc2cc(Oc3ccc(N4C[C@@H]5C[C@H]4CN5)nc3)nc(-c3cc(Cl)cc(Cl)c3)c2)CC1 [Example 187, 2-(1-((2-((6-((1S,4S)-2,5-diazabicyclo[2.2.1]heptan-2-yl)pyridin-3-yl)oxy)-6-(3,5-dichlorophenyl)pyridin-4-yl)methyl)piperidin-4-yl)acetic acid]	–	79.4	1.26
CC(=O)NCC1CCN(Cc2cc(Oc3ccc(N4CC5CNCC5C4)nc3)nc(-c3cc(Cl)cc(Cl)c3)c2)CC1 (stereo not shown) [Example 194, N-((1-((2-(3,5-dichlorophenyl)-6-((6-(hexahydropyrrolo[3,4-c]pyrrol-2(1H)-yl)pyridin-3-yl)oxy)pyridin-4-yl)methyl)piperidin-4-yl)methyl)acetamide]	9.1	3.16	–
CC(=O)NCC1CCN(Cc2cc(Oc3ccc(N4CCC5(CCNC5)C4)nc3)nc(-c3cc(Cl)cc(Cl)c3)c2)CC1 (stereo not shown) [Example 199, N-((1-((2-((6-(2,7-diazaspiro[4.4]nonan-2-yl)pyridin-3-yl)oxy)-6-(3,5-dichlorophenyl)pyridin-4-yl)methyl)piperidin-4-yl)methyl)acetamide]	9.2	5.01	–
CNCc1cc(Oc2ccc(N3CC4CNCC4C3)nc2)cc(-c2cc(Cl)cc(Cl)c2)c1 (stereo not shown) [Example 201, 1-(3′,5′-dichloro-5-((6-(hexahydropyrrolo[3,4-c]pyrrol-2(1H)-yl)pyridin-3-yl)oxy)-[1,1′-biphenyl]-3-yl)-N-methylmethanamine]	9.4	20	–
CNCc1cc(Oc2ccc(N3C[C@@H]4C[C@H]3CN4)nc2)cc(-c2cc(Cl)cc(Cl)c2)c1 [Example 202, 1-(5-((6-((1S,4S)-2,5-diazabicyclo[2.2.1]heptan-2-yl)pyridin-3-yl)oxy)-3′,5′-dichloro-[1,1′-biphenyl]-3-yl)-N-methylmethanamine]	8.6	39.8	–
CN1C[C@@H]2C[C@H]1CN2c1ccc(Oc2cc(CN3CCC(CC(=O)O)CC3)cc(-c3cc(Cl)cc(Cl)c3)n2)cn1 [Example 203, 2-(1-((2-(3,5-dichlorophenyl)-6-((6-((1S,4S)-5-methyl-2,5-diazabicyclo[2.2.1]heptan-2-yl)pyridin-3-yl)oxy)pyridin-4-yl)methyl)piperidin-4-yl)acetic acid]	8.7	12.6	–
CC(CCN1CCN(c2ncc(Oc3cc(CN4CCC(CC(=O)O)CC4)cc(-c4cc(Cl)cc(Cl)c4)n3)cn2)CC1)[S+](C)[O-] (stereo not shown) [Example 204, 2-(1-((2-(3,5-Dichlorophenyl)-6-((2-(4-(3-(methylsulfinyl)butyl)piperazin-1-yl)pyrimidin-5-yl)oxy)pyridin-4-yl)methyl)piperidin-4-yl)acetic acid]	8.7	31.6	–
